# Data taken from ChEMBL document CHEMBL4308841, “Synthesis, in vitro antiproliferative activity, and kinase inhibitory effects of pyrazole-containing diarylureas and diarylamides” (Eur J Med Chem, 2018).
# Tests used:
# NCI-H23 [1] = assay: Growth inhibition of human NCI-H23 cells assessed as cell growth at 100 uM incubated for 48 hrs by sulforhodamine B assay relative to control; assay type: functional; details: NCI-H23, 48 h, read-out: Activity
# A549 = assay: Growth inhibition of human A549/ATCC cells incubated for 48 hrs by sulforhodamine B assay; assay type: functional, cell-based; details: A549, 48 h
# NCI-H23 [2] = assay: Growth inhibition of human NCI-H23 cells assessed as cell growth at 1 uM incubated for 48 hrs by sulforhodamine B assay relative to control; assay type: functional; details: NCI-H23, 48 h, read-out: Activity
# OVCAR-5 = assay: Growth inhibition of human OVCAR5 cells assessed as cell growth at 0.01 uM incubated for 48 hrs by sulforhodamine B assay relative to control; assay type: functional; details: OVCAR-5, 48 h, read-out: Activity
# MCF7 = assay: Growth inhibition of human MCF7 cells assessed as cell growth at 0.01 uM incubated for 48 hrs by sulforhodamine B assay relative to control; assay type: functional; details: MCF7, 48 h, read-out: Activity
# NCI/ADR-RES = assay: Growth inhibition of human NCI/ADR-RES cells assessed as cell growth at 0.1 uM incubated for 48 hrs by sulforhodamine B assay relative to control; assay type: functional; details: read-out: Activity
# LOX IMVI = assay: Growth inhibition of human LOXIMVI cells assessed as cell growth at 0.01 uM incubated for 48 hrs by sulforhodamine B assay relative to control; assay type: functional; details: read-out: Activity
# NCI-H322M = assay: Growth inhibition of human NCI-H322M cells assessed as cell growth at 1 uM incubated for 48 hrs by sulforhodamine B assay relative to control; assay type: functional; details: read-out: Activity
# SF-268 = assay: Growth inhibition of human SF268 cells assessed as cell growth at 0.01 uM incubated for 48 hrs by sulforhodamine B assay relative to control; assay type: functional; details: SF-268, 48 h, read-out: Activity
# SNB-19 = assay: Growth inhibition of human SNB19 cells assessed as cell growth at 0.01 uM incubated for 48 hrs by sulforhodamine B assay relative to control; assay type: functional; details: SNB-19, 48 h, read-out: Activity
# COLO 205 = assay: Growth inhibition of human COLO205 cells incubated for 48 hrs by sulforhodamine B assay; assay type: functional, cell-based; details: COLO 205, 48 h
# KM12 = assay: Growth inhibition of human KM12 cells assessed as cell growth at 100 uM incubated for 48 hrs by sulforhodamine B assay relative to control; assay type: functional; details: KM12, 48 h, read-out: Activity
# UACC-62 = assay: Growth inhibition of human UACC62 cells assessed as cell growth at 0.01 uM incubated for 48 hrs by sulforhodamine B assay relative to control; assay type: functional; details: UACC-62, 48 h, read-out: Activity
# HCT-15 = assay: Growth inhibition of human HCT15 cells assessed as cell growth at 1 uM incubated for 48 hrs by sulforhodamine B assay relative to control; assay type: functional; details: HCT-15, 48 h, read-out: Activity
# NCI-H226 = assay: Growth inhibition of human NCI-H226 cells assessed as cell growth at 1 uM incubated for 48 hrs by sulforhodamine B assay relative to control; assay type: functional; details: NCI-H226, 48 h, read-out: Activity
# K562 [3] = assay: Growth inhibition of human K562 cells assessed as cell growth at 100 uM incubated for 48 hrs by sulforhodamine B assay relative to control; assay type: functional; details: K562, 48 h, read-out: Activity
# SK-MEL-5 [4] = assay: Growth inhibition of human SK-MEL-5 cells assessed as cell growth at 0.1 uM incubated for 48 hrs by sulforhodamine B assay relative to control; assay type: functional; details: SK-MEL-5, 48 h, read-out: Activity
# CAKI-1 = assay: Growth inhibition of human Caki1 cells assessed as cell growth at 0.1 uM incubated for 48 hrs by sulforhodamine B assay relative to control; assay type: functional; details: CAKI-1, 48 h, read-out: Activity
# 786-0 = assay: Growth inhibition of human 786-0 cells assessed as cell growth at 0.1 uM incubated for 48 hrs by sulforhodamine B assay relative to control; assay type: functional; details: 786-0, 48 h, read-out: Activity
# SK-MEL-5 [5] = assay: Growth inhibition of human SK-MEL-5 cells assessed as cell growth at 100 uM incubated for 48 hrs by sulforhodamine B assay relative to control; assay type: functional; details: SK-MEL-5, 48 h, read-out: Activity
# MDA-MB-468 [6] = assay: Growth inhibition of human MDA-MB-468 cells incubated for 48 hrs by sulforhodamine B assay; assay type: functional, cell-based; details: MDA-MB-468, 48 h
# T47D = assay: Growth inhibition of human T47D cells incubated for 48 hrs by sulforhodamine B assay; assay type: functional, cell-based
# RPMI-8226 = assay: Growth inhibition of human RPMI8226 cells assessed as cell growth at 0.01 uM incubated for 48 hrs by sulforhodamine B assay relative to control; assay type: functional; details: RPMI-8226, 48 h, read-out: Activity
# HCT-116 = assay: Growth inhibition of human HCT116 cells incubated for 48 hrs by sulforhodamine B assay; assay type: functional, cell-based; details: HCT-116, 48 h
# K562 [7] = assay: Growth inhibition of human K562 cells assessed as cell growth at 0.1 uM incubated for 48 hrs by sulforhodamine B assay relative to control; assay type: functional; details: K562, 48 h, read-out: Activity
# HT-29 = assay: Growth inhibition of human HT-29 cells assessed as cell growth at 1 uM incubated for 48 hrs by sulforhodamine B assay relative to control; assay type: functional; details: HT-29, 48 h, read-out: Activity
# SN12C = assay: Growth inhibition of human SN12C cells assessed as cell growth at 0.1 uM incubated for 48 hrs by sulforhodamine B assay relative to control; assay type: functional; details: read-out: Activity
# MDA-MB-468 [8] = assay: Growth inhibition of human MDA-MB-468 cells assessed as cell growth at 1 uM incubated for 48 hrs by sulforhodamine B assay relative to control; assay type: functional; details: MDA-MB-468, 48 h, read-out: Activity
# SNB-75 = assay: Growth inhibition of human SNB75 cells assessed as cell growth at 0.1 uM incubated for 48 hrs by sulforhodamine B assay relative to control; assay type: functional; details: SNB-75, 48 h, read-out: Activity
# [9] = read-out: LC50 (the source's name)
# [10] = read-out: pLC50 (the source's name) (converted)
compound,measurement,setting,value
COc1cc(Cl)cc(-c2nn(-c3cccc(NC(=O)c4ccc(N5CCOCC5)c(C(F)(F)F)c4)c3)cc2-c2ccncc2)c1,growth at 100 µM,NCI-H23 [1],38%
same,IC50,A549,9.15 µM
same,GI50,A549; read-out: GI50,9.15 µM
same,CC50,A549; [9],> 100 µM
same,TGI,A549; read-out: TGI,> 100 µM
same,GI50,A549; read-out: pGI50 (converted),9.12 µM
same,CC50,A549; [10],> 100 µM
same,TGI,A549; read-out: pTGI (converted),> 100 µM
same,growth at 1 µM,NCI-H23 [2],96%
same,growth at 0.01 µM,OVCAR-5,94%
same,growth at 0.01 µM,MCF7,91%
same,growth at 0.1 µM,NCI/ADR-RES,99%
same,growth at 0.01 µM,LOX IMVI,97%
same,growth at 1 µM,NCI-H322M,55%
same,growth at 0.01 µM,SF-268,95%
same,growth at 0.01 µM,SNB-19,96%
same,GI50,COLO 205; read-out: GI50,2.22 µM
same,CC50,COLO 205; [9],> 100 µM
same,TGI,COLO 205; read-out: TGI,> 100 µM
same,GI50,COLO 205; read-out: pGI50 (converted),22.4 µM
same,CC50,COLO 205; [10],> 100 µM
same,TGI,COLO 205; read-out: pTGI (converted),> 100 µM
same,growth at 100 µM,KM12,20%
same,growth at 0.01 µM,UACC-62,95%
same,growth at 1 µM,HCT-15,52%
same,growth at 1 µM,NCI-H226,54%
same,growth at 100 µM,K562 [3],2%
same,growth at 0.1 µM,SK-MEL-5 [4],99%
same,growth at 0.1 µM,CAKI-1,100%
same,growth at 0.1 µM,786-0,95%
same,growth at 100 µM,SK-MEL-5 [5],21%
same,IC50,MDA-MB-468 [6],12.1 µM
same,GI50,MDA-MB-468 [6]; read-out: GI50,1.21 µM
same,CC50,MDA-MB-468 [6]; [9],> 100 µM
same,TGI,MDA-MB-468 [6]; read-out: TGI,> 100 µM
same,GI50,MDA-MB-468 [6]; read-out: pGI50 (converted),12 µM
same,CC50,MDA-MB-468 [6]; [10],> 100 µM
same,TGI,MDA-MB-468 [6]; read-out: pTGI (converted),> 100 µM
same,GI50,T47D; read-out: GI50,1.04 µM
same,CC50,T47D; [9],> 100 µM
same,TGI,T47D; read-out: TGI,> 100 µM
same,GI50,T47D; read-out: pGI50 (converted),10.5 µM
same,CC50,T47D; [10],> 100 µM
same,TGI,T47D; read-out: pTGI (converted),> 100 µM
same,growth at 0.01 µM,RPMI-8226,99%
same,IC50,HCT-116,9.64 µM
same,GI50,HCT-116; read-out: GI50,9.54 µM
same,CC50,HCT-116; [9],> 100 µM
same,TGI,HCT-116; read-out: TGI,> 100 µM
same,GI50,HCT-116; read-out: pGI50 (converted),9.55 µM
same,CC50,HCT-116; [10],> 100 µM
same,TGI,HCT-116; read-out: pTGI (converted),> 100 µM
same,growth at 0.1 µM,K562 [7],95%
same,growth at 1 µM,HT-29,93%
same,growth at 0.1 µM,SN12C,95%
same,growth at 1 µM,MDA-MB-468 [8],56%
same,growth at 0.1 µM,SNB-75,54%
